# Source: the kinase profiling compilation of Christmann-Franck et al. (2016)
# Tests used:
# Details in all cases: compound 1.0 µM
# [1] = target: ABL1 (human) (UniProt P00519)
# [2] = target: AKT1 (human) (UniProt P31749)
# [3] = target: AURKA (human) (UniProt O14965)
# [4] = target: CDK2 (human) (UniProt P24941)
# [5] = target: CHEK1 (human) (UniProt O14757)
# [6] = target: CSNK2A1 (human) (UniProt P68400)
# [7] = target: FGFR1 (human) (UniProt P11362)
# [8] = target: GSK3B (human) (UniProt P49841)
# [9] = target: IKBKB (human) (UniProt O14920)
# IKBKB (human), sequence (O14920 whole entry, looked up): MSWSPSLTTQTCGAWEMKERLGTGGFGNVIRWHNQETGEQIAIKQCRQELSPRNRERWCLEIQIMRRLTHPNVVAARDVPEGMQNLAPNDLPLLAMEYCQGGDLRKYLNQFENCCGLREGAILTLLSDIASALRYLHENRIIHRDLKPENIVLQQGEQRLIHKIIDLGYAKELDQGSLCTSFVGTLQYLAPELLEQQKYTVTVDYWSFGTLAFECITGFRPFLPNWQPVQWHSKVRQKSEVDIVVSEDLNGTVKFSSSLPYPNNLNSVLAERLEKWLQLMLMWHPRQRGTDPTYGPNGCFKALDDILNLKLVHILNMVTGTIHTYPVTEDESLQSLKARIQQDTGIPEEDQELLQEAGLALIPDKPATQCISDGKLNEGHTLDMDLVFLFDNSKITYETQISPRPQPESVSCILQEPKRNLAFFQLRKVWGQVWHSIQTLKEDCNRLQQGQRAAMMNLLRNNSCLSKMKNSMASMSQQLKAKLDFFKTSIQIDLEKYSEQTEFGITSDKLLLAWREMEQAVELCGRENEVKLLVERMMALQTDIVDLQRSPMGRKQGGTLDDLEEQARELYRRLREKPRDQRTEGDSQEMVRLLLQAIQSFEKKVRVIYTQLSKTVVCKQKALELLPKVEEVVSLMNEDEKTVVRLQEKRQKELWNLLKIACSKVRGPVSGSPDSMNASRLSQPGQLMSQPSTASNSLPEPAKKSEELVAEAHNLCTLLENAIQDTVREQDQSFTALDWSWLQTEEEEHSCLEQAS
# [10] = target: IKBKE (human) (UniProt Q14164)
# [11] = target: KDR (human) (UniProt P35968)
# KDR (human), sequence (P35968 whole entry, looked up): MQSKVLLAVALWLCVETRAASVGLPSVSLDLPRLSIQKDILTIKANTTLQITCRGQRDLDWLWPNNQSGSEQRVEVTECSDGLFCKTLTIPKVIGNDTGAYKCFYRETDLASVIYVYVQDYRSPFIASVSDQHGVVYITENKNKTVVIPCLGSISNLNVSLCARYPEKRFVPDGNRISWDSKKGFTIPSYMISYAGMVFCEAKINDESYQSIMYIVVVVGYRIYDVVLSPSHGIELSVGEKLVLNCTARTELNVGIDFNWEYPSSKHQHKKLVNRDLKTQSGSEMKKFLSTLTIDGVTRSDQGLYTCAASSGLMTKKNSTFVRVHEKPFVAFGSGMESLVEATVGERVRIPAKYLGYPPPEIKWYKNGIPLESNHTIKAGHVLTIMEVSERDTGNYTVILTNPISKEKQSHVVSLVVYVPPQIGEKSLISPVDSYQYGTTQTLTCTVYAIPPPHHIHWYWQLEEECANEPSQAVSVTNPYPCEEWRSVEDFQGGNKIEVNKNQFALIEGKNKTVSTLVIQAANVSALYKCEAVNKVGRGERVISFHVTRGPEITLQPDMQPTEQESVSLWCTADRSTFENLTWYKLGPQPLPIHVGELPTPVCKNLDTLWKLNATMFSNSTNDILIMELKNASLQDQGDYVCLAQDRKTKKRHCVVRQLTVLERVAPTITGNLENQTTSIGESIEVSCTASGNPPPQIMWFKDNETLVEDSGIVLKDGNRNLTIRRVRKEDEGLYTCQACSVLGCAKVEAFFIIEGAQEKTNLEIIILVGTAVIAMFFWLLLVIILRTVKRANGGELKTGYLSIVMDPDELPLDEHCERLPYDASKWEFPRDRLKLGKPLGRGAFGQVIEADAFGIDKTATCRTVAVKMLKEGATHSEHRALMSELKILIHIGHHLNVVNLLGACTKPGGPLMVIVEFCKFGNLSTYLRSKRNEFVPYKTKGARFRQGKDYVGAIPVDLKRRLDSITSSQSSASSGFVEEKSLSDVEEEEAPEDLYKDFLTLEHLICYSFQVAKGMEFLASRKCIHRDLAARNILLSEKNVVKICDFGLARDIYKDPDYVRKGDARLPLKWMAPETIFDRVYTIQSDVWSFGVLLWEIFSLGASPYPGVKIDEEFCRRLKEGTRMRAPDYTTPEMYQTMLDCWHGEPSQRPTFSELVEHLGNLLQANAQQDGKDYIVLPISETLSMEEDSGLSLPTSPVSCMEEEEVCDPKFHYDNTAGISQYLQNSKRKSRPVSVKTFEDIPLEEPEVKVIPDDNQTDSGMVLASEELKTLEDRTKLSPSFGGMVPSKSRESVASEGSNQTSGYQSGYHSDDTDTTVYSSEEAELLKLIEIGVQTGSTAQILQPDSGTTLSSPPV
# [12] = target: LCK (human) (UniProt P06239)
# [13] = target: MAPK1 (human) (UniProt P28482)
# [14] = target: MAPK14 (human) (UniProt Q16539)
# [15] = target: MAPKAPK2 (human) (UniProt P49137)
# [16] = target: MET (human) (UniProt P08581)
# MET (human), sequence (P08581 whole entry, looked up): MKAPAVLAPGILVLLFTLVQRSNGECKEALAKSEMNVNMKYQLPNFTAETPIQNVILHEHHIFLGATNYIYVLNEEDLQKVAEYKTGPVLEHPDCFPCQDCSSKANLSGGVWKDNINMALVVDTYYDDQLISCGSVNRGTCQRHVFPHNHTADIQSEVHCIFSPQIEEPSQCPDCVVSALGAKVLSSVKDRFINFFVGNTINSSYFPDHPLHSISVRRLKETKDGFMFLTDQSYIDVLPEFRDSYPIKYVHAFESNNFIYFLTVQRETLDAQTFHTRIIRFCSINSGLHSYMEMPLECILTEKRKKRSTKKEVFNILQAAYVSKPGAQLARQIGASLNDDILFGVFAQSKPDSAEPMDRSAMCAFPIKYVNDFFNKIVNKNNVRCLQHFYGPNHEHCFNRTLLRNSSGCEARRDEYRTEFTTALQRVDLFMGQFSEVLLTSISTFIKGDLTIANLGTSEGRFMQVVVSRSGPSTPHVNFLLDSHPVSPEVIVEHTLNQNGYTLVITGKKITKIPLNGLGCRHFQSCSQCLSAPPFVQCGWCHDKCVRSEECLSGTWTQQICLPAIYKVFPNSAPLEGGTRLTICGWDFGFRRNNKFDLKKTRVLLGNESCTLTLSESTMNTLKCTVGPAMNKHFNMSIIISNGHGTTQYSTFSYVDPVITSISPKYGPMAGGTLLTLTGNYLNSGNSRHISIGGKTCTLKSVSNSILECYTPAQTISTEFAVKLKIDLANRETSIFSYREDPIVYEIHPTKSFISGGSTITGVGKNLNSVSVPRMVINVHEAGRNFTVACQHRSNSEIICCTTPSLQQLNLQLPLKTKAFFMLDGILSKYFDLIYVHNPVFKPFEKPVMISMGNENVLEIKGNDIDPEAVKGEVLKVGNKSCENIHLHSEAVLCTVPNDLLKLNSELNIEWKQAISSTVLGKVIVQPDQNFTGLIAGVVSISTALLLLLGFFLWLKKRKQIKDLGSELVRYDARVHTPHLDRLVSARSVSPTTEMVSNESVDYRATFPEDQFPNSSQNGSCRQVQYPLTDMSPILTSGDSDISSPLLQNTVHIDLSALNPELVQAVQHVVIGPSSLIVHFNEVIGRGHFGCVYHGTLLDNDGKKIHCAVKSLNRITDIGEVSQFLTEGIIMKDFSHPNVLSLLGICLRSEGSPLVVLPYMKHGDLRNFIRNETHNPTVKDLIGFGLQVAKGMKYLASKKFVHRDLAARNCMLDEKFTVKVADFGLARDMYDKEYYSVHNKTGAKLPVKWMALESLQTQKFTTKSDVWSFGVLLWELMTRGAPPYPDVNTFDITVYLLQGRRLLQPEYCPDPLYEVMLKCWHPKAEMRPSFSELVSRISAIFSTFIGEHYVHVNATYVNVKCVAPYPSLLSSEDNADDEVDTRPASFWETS
# [17] = target: MST4 (human) (UniProt Q9P289)
# [18] = target: PAK4 (human) (UniProt O96013)
# [19] = target: PDPK1 (human) (UniProt O15530)
# [20] = target: PRKACA (human) (UniProt P17612)
# [21] = target: PRKCB1 (human) (UniProt P05771)
# [22] = target: ROCK1 (human) (UniProt Q13464)
# [23] = target: SRC (human) (UniProt P12931)
# [24] = target: TAOK3 (human) (UniProt Q9H2K8)
# [25] = target: INSR (human) (UniProt P06213)
# [26] = target: NTRK1 (human) (UniProt P04629)
# [27] = target: EGFR (human) (UniProt P00533)
# FGFR1 (human), sequence (P11362 whole entry, looked up): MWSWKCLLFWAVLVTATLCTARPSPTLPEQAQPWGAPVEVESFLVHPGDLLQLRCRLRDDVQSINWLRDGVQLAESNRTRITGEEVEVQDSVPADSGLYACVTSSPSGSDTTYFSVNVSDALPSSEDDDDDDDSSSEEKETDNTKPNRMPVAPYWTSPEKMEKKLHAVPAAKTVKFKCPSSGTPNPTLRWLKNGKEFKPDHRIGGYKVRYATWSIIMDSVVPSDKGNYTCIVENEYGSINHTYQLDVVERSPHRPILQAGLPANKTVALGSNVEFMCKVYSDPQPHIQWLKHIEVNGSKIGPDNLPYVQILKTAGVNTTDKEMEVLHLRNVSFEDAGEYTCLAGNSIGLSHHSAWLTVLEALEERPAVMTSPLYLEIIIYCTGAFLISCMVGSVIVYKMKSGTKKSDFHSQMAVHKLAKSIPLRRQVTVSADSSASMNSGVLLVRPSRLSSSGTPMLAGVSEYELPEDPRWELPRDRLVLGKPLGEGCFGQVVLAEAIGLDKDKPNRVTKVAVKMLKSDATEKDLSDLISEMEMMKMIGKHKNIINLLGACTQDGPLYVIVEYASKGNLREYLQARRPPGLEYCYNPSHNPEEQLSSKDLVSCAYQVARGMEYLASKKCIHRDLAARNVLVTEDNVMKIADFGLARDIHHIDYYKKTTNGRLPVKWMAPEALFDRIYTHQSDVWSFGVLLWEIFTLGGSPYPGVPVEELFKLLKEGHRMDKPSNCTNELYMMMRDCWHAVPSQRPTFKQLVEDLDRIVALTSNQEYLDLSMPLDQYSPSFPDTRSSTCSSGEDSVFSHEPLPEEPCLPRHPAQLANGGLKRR
# AKT1 (human), sequence (P31749 whole entry, looked up): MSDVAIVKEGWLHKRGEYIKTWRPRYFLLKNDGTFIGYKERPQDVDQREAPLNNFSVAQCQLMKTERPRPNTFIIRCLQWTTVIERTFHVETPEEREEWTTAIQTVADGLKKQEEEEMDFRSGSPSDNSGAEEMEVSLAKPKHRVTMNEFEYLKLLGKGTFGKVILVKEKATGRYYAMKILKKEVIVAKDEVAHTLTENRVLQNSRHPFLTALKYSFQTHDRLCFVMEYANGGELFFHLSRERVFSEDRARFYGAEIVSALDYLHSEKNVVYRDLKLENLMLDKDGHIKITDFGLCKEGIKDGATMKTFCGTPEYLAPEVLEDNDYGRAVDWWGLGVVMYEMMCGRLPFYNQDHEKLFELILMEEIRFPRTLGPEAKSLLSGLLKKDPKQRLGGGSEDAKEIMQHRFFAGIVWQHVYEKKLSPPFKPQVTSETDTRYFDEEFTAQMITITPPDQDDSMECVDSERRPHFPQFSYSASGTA
inhibition [1],inhibition [2],inhibition [3],inhibition [4],inhibition [5],inhibition [6],inhibition [7],inhibition [8],inhibition [9],inhibition [10],inhibition [11],inhibition [13],inhibition [15],inhibition [16],inhibition [17],inhibition [19],inhibition [21],inhibition [22],inhibition [23],inhibition [24],SMILES,other results
0%,3.5%,0%,7%,1.8%,20.5%,0%,3.4%,0%,0%,11.9%,11.7%,73.7%,30.4%,10%,0%,0%,5.4%,9.9%,33.8%,O=C1NCCc2[nH]c(-c3ccnc(-c4ccccc4F)c3)cc21,inhibition [12]: 0%; inhibition [14]: 6.7%; inhibition [18]: 4.1%; inhibition [20]: 4.3%
0%,16%,4.4%,0%,0%,0%,0%,0%,0%,0%,4%,1.5%,0%,0%,3.5%,0%,5.6%,86.1%,0.9%,0%,O=S(=O)(c1cccc2cnccc12)N1CCCNCC1,inhibition [25]: 1.9%; inhibition [12]: 0%; inhibition [14]: 0.9%; inhibition [26]: 0.9%
80.6%,11.1%,39.1%,0%,0%,0%,0%,13.6%,6.5%,6.5%,63.6%,2.3%,0%,19.4%,18.7%,0%,27.9%,0%,36.7%,0%,C#Cc1cccc(Nc2ncnc3cc(OCCOC)c(OCCOC)cc23)c1,inhibition [25]: 3.4%; inhibition [14]: 0%; inhibition [26]: 18.5%; inhibition [18]: 5.7%; inhibition [20]: 0.1%
3.15%,0.56%,0%,0%,0%,0%,0%,52.6%,0%,0%,13.5%,11.7%,0%,0%,0%,0%,23.6%,4.88%,16.6%,15.7%,CS(=O)c1ccc(-c2nc(-c3ccc(F)cc3)c(-c3ccncc3)[nH]2)cc1 (stereo not given),inhibition [25]: 0.995%; inhibition [12]: 7.1%; inhibition [26]: 4.44%; inhibition [18]: 6.86%; inhibition [20]: 18.4%
8.86%,0%,0%,–,0%,1.93%,0%,0%,0%,0.63%,1.35%,0%,0%,0%,0%,0%,8.46%,0%,4.9%,3.7%,CC[C@@H](CO)Nc1nc(NCc2ccccc2)c2ncn(C(C)C)c2n1,inhibition [27]: 5.07%; inhibition [25]: 1.28%; inhibition [12]: 0%; inhibition [14]: 5.04%; inhibition [26]: 3.46%; inhibition [18]: 2.92%; inhibition [20]: 5.58%
0%,0%,0%,0%,0%,0%,0%,0%,0%,0%,0%,0%,0%,0%,0%,0%,0%,0%,0%,0%,CS(=O)(=O)CCNCc1ccc(-c2ccc3ncnc(Nc4ccc(OCc5cccc(F)c5)c(Cl)c4)c3c2)o1,inhibition [25]: 0%; inhibition [12]: 0%; inhibition [14]: 0%; inhibition [26]: 0%; inhibition [18]: 0%; inhibition [20]: 0%
82.9%,10.6%,8.8%,2.5%,0%,1%,50.1%,2.8%,4.4%,3.9%,70.6%,6.6%,0.2%,11.3%,14.8%,0%,17.5%,2.8%,93.4%,17.4%,Cc1ccc(-c2nn(C(C)(C)C)c3ncnc(N)c23)cc1,inhibition [12]: 94.5%; inhibition [14]: 33.7%; inhibition [26]: 49.8%; inhibition [18]: 5.3%; inhibition [20]: 29.2%
